In patent US10517867B2, “Posaconazole derivative, pharmaceutical composition and use thereof” (priority 2016, dated 2019):
Where two headings read alike, the source gives them in different places.

Tests used:
[1] = Solid stability test (stability chamber, HPLC total impurity); type: physicochemical
[2] = Determination of solubility in deionized water (HPLC, external standard); settings: for solubility at 30 min: 25 °C, water, thermodynamic from solid; for Solubility: 25±2° C., after 30 min
[3] = solid, packaged, 25° C.±2° C., relative humidity 60%±2%

Compound	solubility at 30 min [2] [mg/mL]	Total impurity increment in 30 days [1, 3] [%]	further results
CC[C@@H](C(C)OC(=O)OC(C)OC(=O)CN(C)C)n1ncn(-c2ccc(N3CCN(c4ccc(OC[C@@H]5CO[C@@](Cn6cncn6)(c6ccc(F)cc6F)C5)cc4)CC3)cc2)c1=O (stereo partly drawn) [Compound 0058]	–	0.47	–
CC[C@@H]([C@H](C)O)n1ncn(-c2ccc(N3CCN(c4ccc(OC[C@@H]5CO[C@@](Cn6c[n+](CC(=O)[O-])cn6)(c6ccc(F)cc6F)C5)cc4)CC3)cc2)c1=O.[Cl-].[Na+] [ST0021]	–	0.97	–
CC[C@@H]([C@H](C)O)n1ncn(-c2ccc(N3CCN(c4ccc(OC[C@@H]5CO[C@@](Cn6c[n+](C(C)OC(=O)NC7O[C@H](CO)[C@H](O)[C@H]7OC(=O)CNC)cn6)(c6ccc(F)cc6F)C5)cc4)CC3)cc2)c1=O (stereo partly drawn) [ST0028]	35.7	–	Total impurity increment in 30 days [1]: 1.62%
CC[C@@H]([C@H](C)O)n1ncn(-c2ccc(N3CCN(c4ccc(OC[C@@H]5CO[C@@](Cn6c[n+](C(C)OC(=O)SCC(=O)[O-])cn6)(c6ccc(F)cc6F)C5)cc4)CC3)cc2)c1=O.[Cl-].[Na+] (stereo partly drawn) [ST0034]	–	1.85	–
CC[C@@H]([C@H](C)O)n1ncn(-c2ccc(N3CCN(c4ccc(OC[C@@H]5CO[C@@](Cn6c[n+](C(C)OC(=O)OCCS)cn6)(c6ccc(F)cc6F)C5)cc4)CC3)cc2)c1=O (stereo partly drawn) [ST0036]	–	0.87	–
CC[C@@H]([C@H](C)O)n1ncn(-c2ccc(N3CCN(c4ccc(OC[C@@H]5CO[C@@](Cn6c[n+](C(C)OC(=O)N(C)c7ncccc7COC(=O)[C@@H](N)CCCNC)cn6)(c6ccc(F)cc6F)C5)cc4)CC3)cc2)c1=O (stereo partly drawn) [ST0038]	> 50	–	Total impurity increment in 30 days [1]: 1.06%
CC[C@@H]([C@H](C)O)n1ncn(-c2ccc(N3CCN(c4ccc(OC[C@@H]5CO[C@@](Cn6c[n+](C(C)OC(=O)N(C)c7ncccc7COC(=O)[C@@H](N)CCNC)cn6)(c6ccc(F)cc6F)C5)cc4)CC3)cc2)c1=O (stereo partly drawn) [ST0040]	> 50	1.34	–
CC[C@@H]([C@H](C)O)n1ncn(-c2ccc(N3CCN(c4ccc(OC[C@@H]5CO[C@@](Cn6c[n+](C(C)OC(=O)OCCOP(=O)(O)O)cn6)(c6ccc(F)cc6F)C5)cc4)CC3)cc2)c1=O (stereo partly drawn) [ST0042]	> 50	1.05	–
CC[C@@H]([C@H](C)OC(=O)OC(C)OC(=O)CC(=O)[O-])n1ncn(-c2ccc(N3CCN(c4ccc(OC[C@@H]5CO[C@@](Cn6cncn6)(c6ccc(F)cc6F)C5)cc4)CC3)cc2)c1=O.[Na+] (stereo partly drawn) [ST0048]	–	0.95	–
CC[C@@H]([C@H](C)OC(=O)OC(C)OC(=O)CN(C)P(=O)([O-])[O-])n1ncn(-c2ccc(N3CCN(c4ccc(OC[C@@H]5CO[C@@](Cn6cncn6)(c6ccc(F)cc6F)C5)cc4)CC3)cc2)c1=O.[Na+].[Na+] (stereo partly drawn) [ST0054]	–	–	Solubility [2]: 40.9 mg/mL
CC[C@@H]([C@H](C)OC(=O)OC(C)OC(=O)CNP(=O)([O-])[O-])n1ncn(-c2ccc(N3CCN(c4ccc(OC[C@@H]5CO[C@@](Cn6cncn6)(c6ccc(F)cc6F)C5)cc4)CC3)cc2)c1=O.[Na+].[Na+] (stereo partly drawn) [ST0055]	–	0.85	Solubility [2]: 35.4 mg/mL
CC[C@@H]([C@H](C)OC(=O)OCCOCCOP(=O)([O-])[O-])n1ncn(-c2ccc(N3CCN(c4ccc(OC[C@@H]5CO[C@@](Cn6cncn6)(c6ccc(F)cc6F)C5)cc4)CC3)cc2)c1=O.[Na+].[Na+] [ST0060]	–	0.83	Solubility [2]: >50 mg/mL
CC[C@@H]([C@H](C)O)n1ncn(-c2ccc(N3CCN(c4ccc(OC[C@@H]5CO[C@@](Cn6c[n+](C(C)OC(=O)N(C)c7ncccc7COC(=O)CN)cn6)(c6ccc(F)cc6F)C5)cc4)CC3)cc2)c1=O (stereo partly drawn) [ST0101]	–	0.47	–
CC[C@@H]([C@H](C)O)n1ncn(-c2ccc(N3CCN(c4ccc(OC[C@@H]5CO[C@@](Cn6c[n+](C(C)OC(=O)N(C)c7ncccc7COC(=O)[C@@H](N)CCC(N)=O)cn6)(c6ccc(F)cc6F)C5)cc4)CC3)cc2)c1=O (stereo partly drawn) [ST0102]	–	0.36	–
CC[C@@H]([C@H](C)O)n1ncn(-c2ccc(N3CCN(c4ccc(OC[C@@H]5CO[C@@](Cn6c[n+](C(C)OC(=O)N(C)c7ncccc7COC(=O)[C@@H](N)CC(N)=O)cn6)(c6ccc(F)cc6F)C5)cc4)CC3)cc2)c1=O (stereo partly drawn) [ST0103]	–	0.29	–
CC[C@@H]([C@H](C)O)n1ncn(-c2ccc(N3CCN(c4ccc(OC[C@@H]5CO[C@@](Cn6c[n+](C(C)OC(=O)N(C)c7ncccc7COC(=O)[C@@H](N)CCCCN)cn6)(c6ccc(F)cc6F)C5)cc4)CC3)cc2)c1=O (stereo partly drawn) [ST0104]	–	0.27	–
CC[C@@H]([C@H](C)O)n1ncn(-c2ccc(N3CCN(c4ccc(OC[C@@H]5CO[C@@](Cn6c[n+](C(C)OC(=O)N(C)c7ncccc7COC(=O)[C@@H](N)CO)cn6)(c6ccc(F)cc6F)C5)cc4)CC3)cc2)c1=O (stereo partly drawn) [ST0105]	–	0.34	–
CC[C@@H]([C@H](C)O)n1ncn(-c2ccc(N3CCN(c4ccc(OC[C@@H]5CO[C@@](Cn6c[n+](C(C)OC(=O)N(C)c7ncccc7COC(=O)[C@@H](N)[C@@H](C)O)cn6)(c6ccc(F)cc6F)C5)cc4)CC3)cc2)c1=O (stereo partly drawn) [ST0106]	–	0.32	–

Continued, in another order:

solubility at 30 min [2] [mg/mL]	Compound	Total impurity increment in 30 days [1, 3] [%]	further results
21.8	CC[C@@H]([C@H](C)O)n1ncn(-c2ccc(N3CCN(c4ccc(OC[C@@H]5CO[C@@](Cn6c[n+](C(C)OC(=O)SC[C@H](N)C(=O)O)cn6)(c6ccc(F)cc6F)C5)cc4)CC3)cc2)c1=O (stereo partly drawn) [ST0030]	–	–
30.5	CC[C@@H]([C@H](C)O)n1ncn(-c2ccc(N3CCN(c4ccc(OC[C@@H]5CO[C@@](Cn6c[n+](C(C)OC(=O)N(C)c7ncccc7CN)cn6)(c6ccc(F)cc6F)C5)cc4)CC3)cc2)c1=O (stereo partly drawn) [ST0032]	–	–
> 50	CC[C@@H]([C@H](C)O)n1ncn(-c2ccc(N3CCN(c4ccc(OC[C@@H]5CO[C@@](Cn6c[n+](C(C)OC(=O)N(C)c7ncccc7CNC)cn6)(c6ccc(F)cc6F)C5)cc4)CC3)cc2)c1=O (stereo partly drawn) [ST0037]	–	–
> 50	CC[C@@H](C(C)OC(=O)OC(C)OC(=O)CN(C)S(=O)(=O)[O-])n1ncn(-c2ccc(N3CCN(c4ccc(OC[C@@H]5CO[C@@](Cn6cncn6)(c6ccc(F)cc6F)C5)cc4)CC3)cc2)c1=O.[Na+] (stereo partly drawn) [ST0056]	–	–
> 50	CC[C@@H](C(C)OC(=O)OC(C)OC(=O)CNS(=O)(=O)[O-])n1ncn(-c2ccc(N3CCN(c4ccc(OC[C@@H]5CO[C@@](Cn6cncn6)(c6ccc(F)cc6F)C5)cc4)CC3)cc2)c1=O.[Na+] (stereo partly drawn) [ST0057]	1.96	–
> 50	CC[C@@H]([C@H](C)OC(=O)OCCOP(=O)([O-])[O-])n1ncn(-c2ccc(N3CCN(c4ccc(OC[C@@H]5CO[C@@](Cn6cncn6)(c6ccc(F)cc6F)C5)cc4)CC3)cc2)c1=O.[Na+].[Na+] [ST0059]	–	–
> 50	CC[C@@H]([C@H](C)OC(=O)OCCOCCOCCOP(=O)([O-])[O-])n1ncn(-c2ccc(N3CCN(c4ccc(OC[C@@H]5CO[C@@](Cn6cncn6)(c6ccc(F)cc6F)C5)cc4)CC3)cc2)c1=O.[Na+].[Na+] [ST0061]	–	–
> 50	CC[C@@H]([C@H](C)OC(=O)OC(C)OC(=O)CCCOP(=O)([O-])[O-])n1ncn(-c2ccc(N3CCN(c4ccc(OC[C@@H]5CO[C@@](Cn6cncn6)(c6ccc(F)cc6F)C5)cc4)CC3)cc2)c1=O.[Na+].[Na+] (stereo partly drawn) [ST0062]	–	–
> 50	CC[C@@H]([C@H](C)OC(=O)OC(C)OC(=O)COP(=O)([O-])[O-])n1ncn(-c2ccc(N3CCN(c4ccc(OC[C@@H]5CO[C@@](Cn6cncn6)(c6ccc(F)cc6F)C5)cc4)CC3)cc2)c1=O.[Na+].[Na+] (stereo partly drawn) [ST0065]	–	–
> 50	CC[C@@H](C(C)OC(=O)OC(C)OC(=O)CCCCOP(=O)([O-])[O-])n1ncn(-c2ccc(N3CCN(c4ccc(OC[C@@H]5CO[C@@](Cn6cncn6)(c6ccc(F)cc6F)C5)cc4)CC3)cc2)c1=O.[Na+].[Na+] (stereo partly drawn) [ST0068]	–	–
43.7	CC[C@@H](C(C)OC(=O)OC(C)OC(=O)CCCCCCCOP(=O)([O-])[O-])n1ncn(-c2ccc(N3CCN(c4ccc(OC[C@@H]5CO[C@@](Cn6cncn6)(c6ccc(F)cc6F)C5)cc4)CC3)cc2)c1=O.[Na+].[Na+] (stereo partly drawn) [ST0069]	–	–
23.4	CC[C@@H](C(C)OC(=O)OC(C)OC(=O)CCCCCCCCOP(=O)([O-])[O-])n1ncn(-c2ccc(N3CCN(c4ccc(OC[C@@H]5CO[C@@](Cn6cncn6)(c6ccc(F)cc6F)C5)cc4)CC3)cc2)c1=O.[Na+].[Na+] (stereo partly drawn) [ST0071]	–	–
> 50	CC[C@@H](C(C)OC(=O)OC(C)OC(=O)COS(=O)(=O)[O-])n1ncn(-c2ccc(N3CCN(c4ccc(OC[C@@H]5CO[C@@](Cn6cncn6)(c6ccc(F)cc6F)C5)cc4)CC3)cc2)c1=O.[Na+] (stereo partly drawn) [ST0075]	–	–
> 50	CC[C@@H](C(C)OC(=O)OC(C)OC(=O)CCOS(=O)(=O)[O-])n1ncn(-c2ccc(N3CCN(c4ccc(OC[C@@H]5CO[C@@](Cn6cncn6)(c6ccc(F)cc6F)C5)cc4)CC3)cc2)c1=O.[Na+] (stereo partly drawn) [ST0076]	–	–
> 50	CC[C@@H]([C@H](C)OC(=O)OC(C)OC(=O)CCCCCCOS(=O)(=O)[O-])n1ncn(-c2ccc(N3CCN(c4ccc(OC[C@@H]5CO[C@@](Cn6cncn6)(c6ccc(F)cc6F)C5)cc4)CC3)cc2)c1=O.[Na+] (stereo partly drawn) [ST0081]	–	–
25.2	CC[C@@H]([C@H](C)OC(=O)OC(C)OC(=O)C(O)COP(=O)([O-])[O-])n1ncn(-c2ccc(N3CCN(c4ccc(OC[C@@H]5CO[C@@](Cn6cncn6)(c6ccc(F)cc6F)C5)cc4)CC3)cc2)c1=O.[Na+].[Na+] (stereo partly drawn) [ST0089]	–	–
> 50	CC[C@@H]([C@H](C)OS(=O)(=O)[O-])n1ncn(-c2ccc(N3CCN(c4ccc(OC[C@@H]5CO[C@@](Cn6cncn6)(c6ccc(F)cc6F)C5)cc4)CC3)cc2)c1=O.[Na+] [ST0095]	–	–
